From US20220033448A1, “METHODS FOR AGGREGATION OF PROTEINS” (priority 2011, published 2022)
No end group written: not given here.

Tests used:
bacterial cells = assay: Membrane potential (BacLight kit, DiOC2 red/green fluorescence); format: cell-based; conditions: 25 μg/ml; after 5 minutes
[1] = Preliminary in vivo toxicity in rats; conditions: 1.5 mg/kg and 3 mg/kg, single injection into a tail vein, observed over several days
Protocol: In order to assess the toxicity of the antibacterial peptide interferors in vivo, eight germ-free fisher male and female rats, weighing approximately ±350 grams were injected with peptide interferor C30 in buffer A: histidine-acetate(pH 6.5) and buffer B phosphate buffer (pH 6.5). Two rats were injected with a concentration of 1.5 mg/kg and two with a concentration of 3 mg/kg. These were single non repeatable injections into a tail vein.

Nocardia asteroides = Nocardia asteroides ATCC 3308; planktonic; 18 hours
Protocol: (§1) Bacteria were grown in a shaking incubator at 37° C. and 160rpm in 50 ml BHI , using individual colonies retrieved from a fresh overnight TSA-sheep blood plate. The cultures were grown to a density of approximately 1×10^8cells/ml and then diluted to 5×10^5 cells/ml in CAMHB (Mc Farland 0.5). Each well contained 100p.I (50p.I of peptide containing MHB plus 50 μl inoculum). The final cell density was 1×10^5 to 5×10^5/ml. After addition of the cell suspension, plates were incubated at 37° C. for 18 to 24 hours. The optical density at 590 nm (OD590) of each well was measured after 5 seconds of shaking the plate using Perkin Elmer spectrophotometer (1420 Multilabel Counter Vicotr 3). […] Each well, where no growth was observed, was also plated on TSA-sheep blood agar plates, incubated at 37° C. overnight and visually inspected.
A microbroth dilution method was used with twofold serial dilutions in CAMHB (according to EMEA guidelines) was used for screening of peptide activity, with concentrations ranging from 0.3 μg/mIto 200 μg/ml.

[2] = system: human embryonic kidney cells (HEK293T cell line); conditions: concentrations lower than 100 μg/ml; HEK293T
Excerpt: Alamar blue assay allowed monitoring of the total percentage of cell growth recovery in time in the presence of peptides.

S. capitis = assay: MIC, microbroth dilution; conditions: planktonic, 18 hours
Protocol: as §1

Bacillus subtilis = assay: MIC, microbroth dilution; conditions: planktonic, 18 hours
Protocol: as §1

Candida albicans SC5314 [3] = assay: C. albicans SC5314 adhesion on 96-well polystyrene plates (XTT reduction assay); format: cell-based; conditions: 90 min adhesion at 37° C.
Protocol: In a next step, lower concentrations of peptide F9 (50 μM, 10 μM and 2.5 μM) were also tested. First, we elucidated the effect of peptide F9 during the period of adhesion (90 min at 37° C.). Then, we tested its effect on further biofilm development, by changing the medium with fresh RPMI1640-MOPS, in the absence of peptide for 48 h. Both assays were performed in 96-well polystyrene plates and quantified by the XTT reduction assay (see material and methods section).
In vitro C. albicans biofilm was studied on three different types of biomaterials, namely flat bottom 96-well polystyrene plate (Greiner Bio-One, Germany), silicone (CS Hyde, USA) and polyurethane triple lumen intravenous catheters (2.4mm diameter) (Arrow International Reading, USA). […] After that, the biofilms were washed twice with 1×PBS and quantified.
The metabolic activity of Candida cells within in vitro biofilms was studied using the XTT reduction assay. This method is based on colorimetric change of a specific substrate—XTT (2,3-bis(2-methoxy-4-nitro-5-sulpho-phenyl)-2H-tetrazolium-5-carboxanilide) (Sigma, USA) which is reduced to XTT formazan by mitochondrial dehydrogenases of metabolic active cells measured by spectrophotometer at 490 nm. […] The intensity of colorimetric change was measured by spectrophotometer (Spectra max Plus 384) at 490 nm. […]

Candida albicans SC5314 [4] = assay: Adherence of C. albicans SC5314 to epithelial cell line TR-146; format: cell-based; conditions: adhesion 1 h
Protocol: As discussed herein before, C. albicans Als3 also plays a role in adherence and invasion to epithelial and endothelial cells. […] Here we investigated the effect of external application of interferor peptide F9 on C. albicans SC5314 adherence and invasion to epithelial cells. Thereto, Candida cells were incubated together with the human cells (epithelial cell line TR-146) in the presence of peptide F9 during adhesion (1 h) or invasion (3 h). The amount of adhered and internalized cells was determined by counting using epifluorescence.
C. albicans strains were grown in liquid YPD, succinate, pH 6.5 or YNB (4% D-glucose) at 30° C. in a shaking incubator overnight. Candida cells were washed three times with 1× PBS and determined to a final concentration 1×10^5 cells/ml in DMEM containing NaHCO3, D-glucose, Na-pyruvate and stable glutamine without FCS. The TR-146 were grown on 12 mm glass slides and inoculated with Candida cells. Different concentrations of positive peptide F9 (50 μM, 10 μM and 2.5 μM) and negative peptides F9_negat, 13 and 20 (50 μM) were tested on Candida adhesion to epithelial cells. Adhesion assay was allowed for 1 h at 37° C., 5% CO2. After adhesion, the cells were washed three times with 1× PBS to remove non-adherent cells and then fixed with 4% paraformaldehyde for 30 min at room temperature.
After extensive rinsing with 1× PBS, the cells were permeabilized in 0.5% Triton X-100 in water for 5 min, and subsequently stained with calcofluor white (dilution 1:100) for 15 min and further washed with water, three times for 10 min, at 30° C., 180 rpm. Coverslips were mounted inverted on a microscope slide and quantified under epifluorescence using a filter set to detect calcofluor white (filter for DAPI) (Leica DFC350 FX, Mannheim, Germany). The percentage of adhered cells was calculated as an average of attached Candida cells on one hundred areas spread over the entire surface of the coverslip.

Sequence	membrane potential (MP) change (bacterial cells)	mortality and side effects [1]	MIC (Nocardia asteroides)	viability of mammalian cells [2]	MIC (S. capitis)	MIC (Bacillus subtilis; Bacillus subtilis ATCC 6051)	MIC (Bacillus subtilis; Bacillus subtilis IP 5832)	adhesion of C. albicans SC5314 on polystyrene (Candida albicans SC5314 [3]; 2.5 μM peptide)	adhesion of C. albicans SC5314 on polystyrene (Candida albicans SC5314 [3]; 50 μM and 10 μM peptide)	decrease of Candida adhesion to epithelial cells compared to the control (Candida albicans SC5314 [4]; 2.5 μM) [%]	decrease of Candida adhesion to epithelial cells compared to the control (Candida albicans SC5314 [4]; 10 μM)	decrease of Candida adhesion to epithelial cells compared to the control (Candida albicans SC5314 [4]; 50 μM) [%]
RILLGLIRRGSRILLGLIRR [C30]	full depolarization of the MP	no mortality nor any other side effects were apparently visible	Nocardia asteroides ATCC 3308: 1.5 μg/ml	viability of mammalian cells is not significantly affected	S. capitis: 1.5 μg/ml	Bacillus subtilis ATCC 6051: 1.5 μg/ml	Bacillus subtilis IP 5832: 6 μg/ml	–	–	–	–	–
RKLLFNLGSRNGIVIVATTR [F9]	–	–	–	–	–	–	–	dramatically decreased adhesion properties of Candida cells	almost completely abolished Candida attachment	~15	approximately 20%	40
